{"source": "patent US20200253877A1", "about": "“GEMCABENE, PHARMACEUTICALLY ACCEPTABLE SALTS THEREOF, COMPOSITIONS THEREOF AND METHODS OF USE THEREFOR” (NEUROBO PHARMACEUTICALS, INC., priority 2018, published 2020)", "key": {"[1]": {"test_system": "STAM™ mice, a murine model of NASH-HCC", "experiment": "Murine STAM model of NASH-HCC: liver histology (H&E, NAFLD Activity Score, Sirius red fibrosis area)", "assay_type": "in vivo, mouse", "design": "key to NAS (mean ± SD) / NAFLD Activity Score: NAS = unweighted sum of steatosis, lobular inflammation, ballooning scores", "settings": "for fibrosis area (Sirius red-positive area): all gemcabene Form 1 groups (30, 100, 300 mg/kg); for Lobular Inflammation score 0: number of mice: score 0 = No foci; for Hepatocyte Ballooning score 0: number of mice: score 0 = None; for Steatosis score 1: number of mice: score 1 = 5-33%; for Hepatocyte Ballooning score 1: number of mice: score 1 = Few balloon cells; for Lobular Inflammation score 2: number of mice: score 2 = 2-4 foci/200x; for Hepatocyte Ballooning score 2: number of mice: score 2 = Many cells/prominent ballooning; for Steatosis score 0: number of mice: score 0 = <5%", "text": "The present invention further provides methods for reducing a fibrosis score or a nonalcoholic fatty liver disease activity score in a subject, comprising administering to a subject in need thereof an effective amount of a tablet of the invention, gemcabene calcium salt hydrate Crystal Form 4, gemcabene calcium salt hydrate Crystal Form 5 or gemcabene calcium salt hydrate Crystal Form 6. The nonalcoholic fatty liver disease activity score (NAS or NAFLD score) is a composite score that measures changes in NAFLD during therapeutic trials. NAS is a composite score comprised of three components that includes scores for steatosis, lobular inflammation and hepatocyte ballooning (Table 36). NAS is the unweighted sum of the scores for steatosis, lobular inflammation and hepatocyte ballooning. Steatosis grade is quantified as the percentage of hepatocytes that contain fat droplets. The fibrosis stage of the liver is evaluated separately from NAS by histological evaluation of the intensity of Sirius red staining of collagen in the pericentral region of liver lobules.\nA study was performed to evaluate the efficacy of gemcabene calcium salt hydrate Crystal Form 1 having a PSD90 of 52 μm as measured by laser light diffraction, in treating non-alcoholic steatosis hepatitis (NASH) in the murine STAM™ model of NASH-HCC.\nBriefly, two-day old neonatal C57BL/6 male mice were administered low-dose streptozotocin (STZ), and were subsequently fed a HFC diet from 4 weeks of age. In this model, the mice typically develop liver steatosis and diabetes, reaching steatohepatitis within 3 weeks, followed by cirrhosis within 8 weeks, and carcinoma within 16 weeks. In the current study, mice were administered daily oral gemcabene calcium salt hydrate Crystal Form 1 starting at week 6 of age and were sacrificed at week 9. […] These STAM™ groups were orally administered from week 6 one of the following: water-vehicle, gemcabene calcium salt hydrate Crystal Form 1 at 30, 100 and 300 mg/kg daily, or telmisartan ([…]®) 10 mg/kg daily. […] All groups were sacrificed at week 9. Vehicle, gemcabene calcium salt hydrate Crystal Form 1, or telmisartan were administered by oral gavage once daily.\nFor Hematoxylin and Eosin (H&E) staining, sections were cut from paraffin blocks of liver tissue prefixed in Bouin's solution and stained with Lillie-Mayer's Hematoxylin (Muto Pure Chemicals Co., Ltd., Japan) and eosin solution (Wako Pure Chemical Industries). NAFLD Activity score (NAS) was calculated according to the criteria of Kleiner, D E. Et al., Hepatology, 2005; 41:1313-1321. To visualize collagen deposition, Bouin's fixed liver sections were stained using picro-Sirius red solution (Waldeck, Germany). For Masson Trichrome staining, the sections were stained with Masson's Trichrome staining Kit (Sigma, USA) according to the manufacturer's instructions.\nFor quantitative analysis of fibrosis area, bright field images of Sirius red-stained sections were captured around the central vein using a digital camera (DFC295; Leica, Germany) at 200-fold magnification, and the positive areas in 5 fields/section were measured using ImageJ software (National Institute of Health, USA). Samples were analyzed in a blinded fashion."}, "[2]": {"experiment": "Integrated analysis of efficacy from completed clinical studies: LDL-C", "assay_type": "in vivo, human", "settings": "inclusive of all background therapies", "text": "Gemcabene calcium salt hydrate Crystal Form 1 given on top of steady-state statins has shown a statin-intensity dependent effect. […] Statins inhibit cholesterol synthesis and upregulate LDL receptor expression to effect LDL-C reduction."}, "[3]": {"settings": "human, in vivo", "procedure": "An open-label, two-sequence, cross-over study to assess the steady-state effects of gemcabene calcium on the single-dose pharmacokinetics (PK) of oral contraceptive tablets in healthy female subjects was conducted with 300 mg tablets containing gemcabene calcium salt hydrate Crystal Form 1 having PSD90 of 52 μm (film-coated Tablet F).\nThe population for this study was generally healthy, adult female subjects of childbearing potential (≥18 to ≤35 years of age). This population supports the overall objective of the study to evaluate the effect of 600 mg of gemcabene calcium salt hydrate Crystal Form 1 having PSD90 of 52 μm at steady-state on the PK of a single dose of ON 1/35 (Ortho Novum 1/35; combined ethinyl estradiol/norethindrone oral contraceptive). The primary objective of this study was to assess the effect of daily 600 mg of gemcabene calcium salt hydrate Crystal Form 1 having PSD90 of 52 μm at steady-state on the pharmacokinetics (PK) of ON 1/35. The secondary objectives of this study were to assess the safety and tolerability of daily gemcabene 600 mg in combination with a single-dose ON 1/35 and to assess the steady-state PK of 600 mg of gemcabene calcium salt hydrate Crystal Form 1 having PSD90 of 52 μm (film-coated Tablet F×2).\nThroughout the study, 2 (12.5%) subjects in Treatment A; 4 (26.7%) subjects during gemcabene alone treatment of Treatment B, and 3 (20%) subjects during gemcabene with ON 1/35 treatment of Treatment B, had treatment-emergent adverse events (TEAEs). […] All TEAEs were considered to be mild or moderate in severity."}, "[4]": {"settings": "vs vehicle-treated STAM mice, telmisartan 10 mg/kg"}, "[5]": {"settings": "vs vehicle-treated STAM mice, gemcabene Form 1 30 and 300 mg/kg, telmisartan 10 mg/kg"}}}
{"smiles": "CC(C)(CCCCOCCCCC(C)(C)C(=O)O)C(=O)O.[Ca]", "note": "[6-(5-Carboxy-5-methyl-hexyloxy)-2,2-dimethylhexanoic acid calcium]", "values": [{"measurement": "micro- and macro-vesicular hepatic fat deposition, hepatocellular ballooning and inflammatory cell infiltration (H&E)", "setting": "[1]; STAM mice", "result": "diminished"}, {"measurement": "fibrosis area (Sirius red-positive area)", "setting": "[1]; [4]", "result": "significant decreases"}, {"measurement": "NAFLD Activity Score (NAS)", "setting": "[1]; vs vehicle-treated STAM mice, gemcabene Form 1 100 mg/kg (trending lower)", "result": "no significant difference"}, {"measurement": "steatosis score and ballooning score", "setting": "[1]; vs vehicle-treated STAM mice, gemcabene Form 1 300 mg/kg", "result": "significant decrease"}, {"measurement": "NAFLD Activity Score (NAS)", "setting": "[1]; [5]", "result": "significant reduction"}, {"measurement": "lobular inflammation and ballooning scores", "setting": "[1]; [5]", "result": "lower"}, {"measurement": "steatosis (H&E-stained liver sections)", "setting": "[1]; [5]", "result": "less steatosis"}, {"measurement": "mean LDL-C reduction", "setting": "[2]", "result": "about 21%"}]}
{"smiles": "CC(C)(CCCCOCCCCC(C)(C)C(=O)O)C(=O)O", "note": "[gemcabene, 6-(5-carboxy-5-methyl-hexyloxy)-2,2-dimethyl-hexanoic acid]", "values": [{"measurement": "Lobular Inflammation score 1: number of mice", "setting": "[1]; 30 mg/kg PO QD, n = 8", "result": 2}, {"measurement": "NAS (mean ± SD)", "setting": "[1]; 30 mg/kg PO QD, n = 8", "result": "3.4 ± 1.1"}, {"measurement": "Lobular Inflammation score 0: number of mice", "setting": "[1]; 30 mg/kg PO QD, n = 8", "result": 1}, {"measurement": "Hepatocyte Ballooning score 0: number of mice", "setting": "[1]; 30 mg/kg PO QD, n = 8", "result": 4}, {"measurement": "Steatosis score 1: number of mice", "setting": "[1]; 30 mg/kg PO QD, n = 8", "result": 8}, {"measurement": "Hepatocyte Ballooning score 1: number of mice", "setting": "[1]; 30 mg/kg PO QD, n = 8", "result": 2}, {"measurement": "Lobular Inflammation score 2: number of mice", "setting": "[1]; 30 mg/kg PO QD, n = 8", "result": 4}, {"measurement": "Hepatocyte Ballooning score 2: number of mice", "setting": "[1]; 30 mg/kg PO QD, n = 8", "result": 2}, {"measurement": "Lobular Inflammation score 3: number of mice", "setting": "[1]; 30 mg/kg PO QD, n = 8, score 3 = >4 foci/200x", "result": 1}, {"measurement": "NAFLD Activity Score", "setting": "[1]; 30 mg/kg, STAM mice", "result": 3.4}, {"measurement": "Sirius red-positive area", "setting": "[1]; 30 mg/kg, STAM mice", "result": 0.56, "unit": "%"}, {"measurement": "Lobular Inflammation score 1: number of mice", "setting": "[1]; 100 mg/kg PO QD, n = 8", "result": 1}, {"measurement": "NAS (mean ± SD)", "setting": "[1]; 100 mg/kg PO QD, n = 8", "result": "3.6 ± 1.4"}, {"measurement": "Lobular Inflammation score 0: number of mice", "setting": "[1]; 100 mg/kg PO QD, n = 8", "result": 2}, {"measurement": "Hepatocyte Ballooning score 0: number of mice", "setting": "[1]; 100 mg/kg PO QD, n = 8", "result": 1}, {"measurement": "Steatosis score 1: number of mice", "setting": "[1]; 100 mg/kg PO QD, n = 8", "result": 8}, {"measurement": "Hepatocyte Ballooning score 1: number of mice", "setting": "[1]; 100 mg/kg PO QD, n = 8", "result": 4}, {"measurement": "Lobular Inflammation score 2: number of mice", "setting": "[1]; 100 mg/kg PO QD, n = 8", "result": 5}, {"measurement": "Hepatocyte Ballooning score 2: number of mice", "setting": "[1]; 100 mg/kg PO QD, n = 8", "result": 3}, {"measurement": "NAFLD Activity Score", "setting": "[1]; 100 mg/kg, STAM mice", "result": 3.6}, {"measurement": "Sirius red-positive area", "setting": "[1]; 100 mg/kg, STAM mice", "result": 0.53, "unit": "%"}, {"measurement": "Lobular Inflammation score 1: number of mice", "setting": "[1]; 300 mg/kg PO QD, n = 8", "result": 2}, {"measurement": "NAS (mean ± SD)", "setting": "[1]; 300 mg/kg PO QD, n = 8", "result": "2.5 ± 0.8"}, {"measurement": "Steatosis score 0: number of mice", "setting": "[1]; 300 mg/kg PO QD, n = 8", "result": 3}, {"measurement": "Lobular Inflammation score 0: number of mice", "setting": "[1]; 300 mg/kg PO QD, n = 8", "result": 2}, {"measurement": "Hepatocyte Ballooning score 0: number of mice", "setting": "[1]; 300 mg/kg PO QD, n = 8", "result": 4}, {"measurement": "Steatosis score 1: number of mice", "setting": "[1]; 300 mg/kg PO QD, n = 8", "result": 5}, {"measurement": "Hepatocyte Ballooning score 1: number of mice", "setting": "[1]; 300 mg/kg PO QD, n = 8", "result": 3}, {"measurement": "Lobular Inflammation score 2: number of mice", "setting": "[1]; 300 mg/kg PO QD, n = 8", "result": 4}, {"measurement": "Hepatocyte Ballooning score 2: number of mice", "setting": "[1]; 300 mg/kg PO QD, n = 8", "result": 1}, {"measurement": "NAFLD Activity Score", "setting": "[1]; 300 mg/kg, STAM mice", "result": 2.5}, {"measurement": "Sirius red-positive area", "setting": "[1]; 300 mg/kg, STAM mice", "result": 0.59, "unit": "%"}, {"measurement": "subjects with a drug-related TEAE (constipation)", "setting": "[3]; female", "result": 1, "unit": "subject"}, {"measurement": "serious adverse events (SAEs)", "setting": "[3]", "result": "no serious adverse events"}, {"measurement": "tolerability", "setting": "[3]", "result": "well tolerated"}]}
{"smiles": "CCCc1nc2c(C)cc(-c3nc4ccccc4n3C)cc2n1Cc1ccc(-c2ccccc2C(=O)O)cc1", "note": "[telmisartan, reference compound]", "values": [{"measurement": "Lobular Inflammation score 1: number of mice", "setting": "[1]; 10 mg/kg PO QD, n = 7", "result": 4}, {"measurement": "NAS (mean ± SD)", "setting": "[1]; 10 mg/kg PO QD, n = 7", "result": "2.6 ± 1.0"}, {"measurement": "Steatosis score 0: number of mice", "setting": "[1]; 10 mg/kg PO QD, n = 7", "result": 1}, {"measurement": "Lobular Inflammation score 0: number of mice", "setting": "[1]; 10 mg/kg PO QD, n = 7", "result": 2}, {"measurement": "Hepatocyte Ballooning score 0: number of mice", "setting": "[1]; 10 mg/kg PO QD, n = 7", "result": 2}, {"measurement": "Steatosis score 1: number of mice", "setting": "[1]; 10 mg/kg PO QD, n = 7", "result": 6}, {"measurement": "Hepatocyte Ballooning score 1: number of mice", "setting": "[1]; 10 mg/kg PO QD, n = 7", "result": 4}, {"measurement": "Lobular Inflammation score 2: number of mice", "setting": "[1]; 10 mg/kg PO QD, n = 7", "result": 1}, {"measurement": "Hepatocyte Ballooning score 2: number of mice", "setting": "[1]; 10 mg/kg PO QD, n = 7", "result": 1}, {"measurement": "NAFLD Activity Score", "setting": "[1]; 10 mg/kg, STAM mice", "result": 2.6}, {"measurement": "Sirius red-positive area", "setting": "[1]; 10 mg/kg, STAM mice", "result": 0.48, "unit": "%"}, {"measurement": "fibrosis area (Sirius red-positive area)", "setting": "[1]; [4]", "result": "significant decreases"}, {"measurement": "NAFLD Activity Score (NAS)", "setting": "[1]; [5]", "result": "significant reduction"}, {"measurement": "lobular inflammation and ballooning scores", "setting": "[1]; [5]", "result": "lower"}, {"measurement": "steatosis (H&E-stained liver sections)", "setting": "[1]; [5]", "result": "less steatosis"}]}
